Source: PubChem BioAssay AID1645868 (Buhrlage Lab, Dana-Farber Cancer Institute and Novartis …, 2021)
The source made the active and inactive calls.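 Rule for the calls: active = maximal percent inhibition of the deubiquitinase OTUD3 of at least 30% across the tested doses; inactive = the rest.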

Target: OTU domain-containing protein 3 (Homo sapiens) (UniProt Q5T2D3)
Assay: Validation of screening hits, potency titration, in vitro enzymatic, OTU domain-containing protein 3 DUB inhibitors (AID 1645868)
Settings: purified OTUD3, ubiquitin-rhodamine cleavage fluorescence, 2 h

Sequence of OTU domain-containing protein 3 (Homo sapiens) (Q5T2D3 whole entry, looked up, the tested form may be a part): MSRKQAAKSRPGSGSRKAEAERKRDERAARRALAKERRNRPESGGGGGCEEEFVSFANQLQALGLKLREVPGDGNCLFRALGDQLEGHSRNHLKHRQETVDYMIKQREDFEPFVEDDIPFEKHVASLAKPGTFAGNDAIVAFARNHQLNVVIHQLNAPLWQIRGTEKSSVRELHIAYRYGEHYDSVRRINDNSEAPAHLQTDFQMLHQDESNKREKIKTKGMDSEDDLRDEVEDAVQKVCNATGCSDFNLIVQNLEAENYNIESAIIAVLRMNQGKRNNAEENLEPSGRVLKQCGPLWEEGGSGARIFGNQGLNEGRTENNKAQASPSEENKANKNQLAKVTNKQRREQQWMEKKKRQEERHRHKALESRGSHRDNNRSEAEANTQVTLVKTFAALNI

Row | SMILES | IC50
1 | CCC(C)NC(=O)Cn1c(=O)n(-c2ccccc2)c(=O)c2ccc(C(=O)NCc3ccco3)cc21 (configuration not stated) | 35.4 µM
2 | O=C(NCc1ccc(F)cc1)N1CCC2(C1)Nc1cccnc1NC2=NCc1ccccc1 (configuration not stated) | > 50 µM (inactive)
3 | CC(=O)O[C@H]1[C@]2(O)C[C@]34SS[C@](CO)(C(=O)N3[C@@H]2C[C@@]12O[C@@H](C)C(C)(C)C2=O)N(C)C4=O | > 50 µM (inactive)
4 | Cc1c(CC(=O)Nc2nn[nH]n2)c(=O)oc2cc3c(cc12)CCC1(CCCCC1)O3 | > 50 µM (inactive)
5 | Cc1cccc(NC(=O)c2nc(N3CCSCC3)c3cnn(C)c3n2)c1 | > 50 µM (inactive)
6 | O=C1NCc2c1c1c3ccccc3[nH]c1c1[nH]c3ccccc3c21 | > 50 µM (inactive)
7 | COCCCNC(=O)Cn1c(=O)n(Cc2ccc(C(=O)NCc3ccccc3OC)cc2)c(=O)c2ccccc21 | > 50 µM (inactive)
8 | CC(C)(C)N=C1Nc2ncccc2NC12CCCN(C(=O)c1ccccc1)C2 (configuration not stated) | > 50 µM (inactive)
9 | O=C(c1cc2ccccc2o1)N1CC=C(c2ccccc2)CC1 | > 50 µM (inactive)
10 | O=C(O)CCCCCN1C(=O)CC(c2ccc(Cl)cc2)CC1=O | 46.9 µM
11 | Cc1sc(NC(=O)CN2CCc3ccccc3C2)nc1-c1ccc2c(c1)CCN2C(=O)C1CCCCC1 | > 50 µM (inactive)
12 | COc1ccc(CNC(=O)CCc2nnc3n(Cc4ccccc4Cl)c(=O)c4ccccc4n23)cc1 | 13.1 µM
13 | Cc1ccc(C2c3c(-c4ccccc4O)n[nH]c3C(=O)N2Cc2ccco2)cc1 (configuration not stated) | 30.4 µM
14 | CC1OC2CC(O)C1(O)C1=C2C(=O)c2c(O)c3c(c(O)c2C1=O)[C@H](C)O[C@H]1CC(=O)O[C@@H]31 (some centres not stated) | > 50 µM (inactive)
15 | O=C(c1cscn1)N1CCC2(CC1)CC1(CO2)Nc2ccccc2-n2cccc21 (configuration not stated) | > 50 µM (inactive)
16 | COc1cc(C2SCC(=O)Nc3c2c(-c2ccccc2)nn3-c2ccccc2)cc(OC)c1OC (configuration not stated) | > 50 µM (inactive)

Row | SMILES | IC50
17 | CC(C)N1CC2CN(Cc3ccc(Cl)cc3)CCN2Cc2ccccc21 (configuration not stated) | > 50 µM (inactive)
18 | Nc1c(-c2nc(-c3ccc4c(c3)OCO4)cs2)nnn1-c1ccccc1 | > 50 µM (inactive)
19 | Cc1c(OCC(=O)NCC(=O)N2CCC3(O)CCCCC3C2)ccc2c3c(c(=O)oc12)CCCC3 (configuration not stated) | > 50 µM (inactive)
20 | O=C(CCc1ccccc1)N(CC1CCCO1)c1nc2ccccc2s1 (configuration not stated) | > 50 µM (inactive)
21 | CS(=O)(=O)N1CCc2cc(C(=O)Nc3ccc(Cc4ccncc4)cc3)ccc21 | > 50 µM (inactive)
22 | CC1=CN2C(=N)/C(=C/c3cn(Cc4ccc(Cl)cc4)c4ccccc34)C(=O)N=C2S1 | > 50 µM (inactive)
23 | O=C(c1ccnn1-c1ccc2ccc(-c3ccncc3)cn12)N1CCCC1 | > 50 µM (inactive)
24 | COc1c2n(c3ccccc13)[C@@]1(O)C(=O)N(C)C(=O)[C@@]1(O)c1c-2n(C)c2ccc(Cl)cc12 | > 50 µM (inactive)
25 | O=C(O)c1ccccc1C(=O)Nc1ccc(SC(C(=O)Nc2ccccc2)c2ccccc2)cc1 (configuration not stated) | > 50 µM (inactive)
26 | CC1CC(=O)Nc2ccccc2N1S(=O)(=O)c1ccc(C#N)cc1 (configuration not stated) | > 50 µM (inactive)
27 | COc1cccc2cc(C(=O)Nc3ccc4c(c3)OCCO4)oc12 | > 50 µM (inactive)
28 | CC(C)(C)C(=O)[C@@H]1[C@@H](C(=O)c2ccc3c(c2)OCO3)[C@@]2(C(=O)Nc3ccccc32)[C@H]2c3ccccc3C=CN12 | > 50 µM (inactive)
29 | O=C(Nc1ccccc1)c1nc2c(s1)CCN(C(=O)c1ccccc1)CC2 | > 50 µM (inactive)
30 | CCn1c(=O)c(=O)[nH]c2cc(C(=O)Nc3cccc(-c4csc(C)n4)c3)ccc21 | > 50 µM (inactive)
31 | COc1ccc(/C=C/C(=O)Nc2cccc(S(=O)(=O)Nc3ccccc3Cl)c2)c(OC)c1 | 25.5 µM

Further lines, results first:

Row | IC50 | SMILES
32 | 44.3 µM | COc1ccc(Cl)cc1NC(=O)Cn1c(=O)cc(C)c2c(C)nn(-c3ccccc3)c21
33 | > 50 µM (inactive) | Cc1ccc(C(C)C)cc1OCCOCCN1CCNCC1
34 | > 50 µM (inactive) | CC(=O)c1cccc(NC(=O)c2ccc(CN(c3ccc(C)c(C)c3)S(C)(=O)=O)cc2)c1
35 | > 50 µM (inactive) | CSc1nc(Cc2ccc(Cl)cc2)nc2ccccc12
36 | > 50 µM (inactive) | Cc1sc2ncn3c(=O)n(CC(=O)Nc4ccc(F)c(Cl)c4)nc3c2c1C
37 | 30 µM | CCCc1nc2c(sc3nc4c(cc32)COC(C)(C)C4)c(=O)n1CC(=O)Nc1ccccc1C
38 | > 50 µM (inactive) | N#Cc1ccc(Cn2nnc(-c3cccc(Cl)c3)n2)cc1
39 | > 50 µM (inactive) | COc1ccc(CCNc2c(-c3ccccc3O)nc3cnccn23)cc1OC
40 | 18 µM | CCn1cc(-c2nc(-c3ccccc3)no2)c(=O)c2cc(F)ccc21
41 | > 50 µM (inactive) | Cc1ccc(C)c(-n2c(C)cc(/C=C3/C(=N)N4C(c5ccc(F)cc5)=CSC4=NC3=O)c2C)c1
42 | > 50 µM (inactive) | Cc1noc(-c2cc(=O)n(CC(=O)NCc3ccccc3)c3ccccc23)n1
43 | > 50 µM (inactive) | Cc1ccc(-n2nc(C)c3c2NC(=O)CC3C(=O)c2cc3ccccc3o2)cc1C (configuration not stated)
44 | 48.5 µM | Cc1c(-c2nnc(-c3ccccn3)o2)nnn1-c1cccc(Cl)c1
45 | 47.8 µM | Cc1cccc(Cl)c1NC(=O)Nc1ccc(NC(=O)c2ccccc2O)cc1
46 | > 50 µM (inactive) | Cn1c(SCCOc2ccc(Cl)cc2)nnc1-c1ccc2c(c1)OCCO2
47 | > 50 µM (inactive) | Fc1ccccc1Cc1nc(-c2ccc3nncn3c2)no1
48 | > 50 µM (inactive) | Cc1c(C)c2ccc(OCC(=O)NCc3ccncc3)c(C)c2oc1=O
49 | > 50 µM (inactive) | COc1ccccc1-c1nc2c3c(C)c(C)n(Cc4cccnc4)c3ncn2n1

Row | IC50 | SMILES
50 | > 50 µM (inactive) | CCc1ccc2c(c1)[C@]1(C(=O)N2)[C@@H]2C(=O)N(c3ccc(Cl)cc3Cl)C(=O)[C@@H]2[C@@H]2CCCN21
51 | > 50 µM (inactive) | CNC(=O)c1cc2c(=O)n3cccc(C)c3nc2n1Cc1ccccc1
52 | > 50 µM (inactive) | Cc1nn(-c2cccc(F)c2)c2c1c(C)c(CCC(=O)NCc1ccccn1)c(=O)n2C
53 | 32.1 µM | Cc1cc(C)c2cc(C(=O)NC3CCN(Cc4ccccc4)CC3)[nH]c2c1
54 | 46.3 µM | CSc1ccccc1C(=O)Nc1nc(-c2ccncc2)cs1
55 | > 50 µM (inactive) | Cc1cccc(C(=O)NCc2nc3ccccc3n2Cc2ccccc2C)c1
56 | > 50 µM (inactive) | Cc1cc(SCc2ncon2)c(C)cc1Cl
57 | > 50 µM (inactive) | O=C(CNc1ccc(F)c(Cl)c1)Nc1ccc2c(c1)OCCO2
58 | 29.3 µM | Nc1ncnc(SCc2ccc(Cl)cc2)n1
59 | 3.46 µM | COc1ccc(-c2nc(Cn3nnc(C(=O)Nc4ccc(C)c(C)c4)c3N)c(C)o2)cc1
60 | > 50 µM (inactive) | CCOC(=O)c1cc2c(ccn2C)n1Cc1cccc2ccccc12
61 | > 50 µM (inactive) | CCOc1ccc(-c2ccc3nnc(SCC(=O)Nc4cccc(C(C)=O)c4)n3n2)cc1
62 | > 50 µM (inactive) | Cc1nc(Nc2ncc(C)s2)cc(C2CN(C(=O)Cc3ccccc3)CCO2)n1 (configuration not stated)
63 | > 50 µM (inactive) | Cc1cccc2sc(NC(=O)c3nnn(-c4ccc(F)cc4)n3)nc12
64 | > 50 µM (inactive) | COc1ccc(-c2cc3nc(C)cc(Nc4ccc(F)cc4)n3n2)cc1OC
65 | > 50 µM (inactive) | COc1ccc(CCNC(=O)[C@H](CCSC)NC(=O)N2CCn3c2nc2ccccc23)cc1OC
66 | > 50 µM (inactive) | CC(C)c1nc2sc3c(N(CCO)CCO)ncnc3c2c2c1COC(C)(C)C2
67 | > 50 µM (inactive) | Cc1cc(C)cc(NC(=O)CSc2ccc(-c3ccncc3)nn2)c1
